Data published in ChEMBL document CHEMBL5236647, “The discovery of 3,3-dimethyl-1,2,3,4-tetrahydroquinoxaline-1-carboxamides as AMPD2 inhibitors with a novel mechanism of action” (Bioorg Med Chem Lett, 2023).
The source made the active and inactive calls. The rule behind the calls is not given here.

Assays:
AMP deaminase 2 [1] = target: T1, AMP deaminase 2 (Homo sapiens, UniProt Q01433); assay: Inhibition of recombinant human AMPD2 using AMP as substrate incubated for 30 mins by spectrophotometric analysis
T1 sequence (Q01433 whole entry): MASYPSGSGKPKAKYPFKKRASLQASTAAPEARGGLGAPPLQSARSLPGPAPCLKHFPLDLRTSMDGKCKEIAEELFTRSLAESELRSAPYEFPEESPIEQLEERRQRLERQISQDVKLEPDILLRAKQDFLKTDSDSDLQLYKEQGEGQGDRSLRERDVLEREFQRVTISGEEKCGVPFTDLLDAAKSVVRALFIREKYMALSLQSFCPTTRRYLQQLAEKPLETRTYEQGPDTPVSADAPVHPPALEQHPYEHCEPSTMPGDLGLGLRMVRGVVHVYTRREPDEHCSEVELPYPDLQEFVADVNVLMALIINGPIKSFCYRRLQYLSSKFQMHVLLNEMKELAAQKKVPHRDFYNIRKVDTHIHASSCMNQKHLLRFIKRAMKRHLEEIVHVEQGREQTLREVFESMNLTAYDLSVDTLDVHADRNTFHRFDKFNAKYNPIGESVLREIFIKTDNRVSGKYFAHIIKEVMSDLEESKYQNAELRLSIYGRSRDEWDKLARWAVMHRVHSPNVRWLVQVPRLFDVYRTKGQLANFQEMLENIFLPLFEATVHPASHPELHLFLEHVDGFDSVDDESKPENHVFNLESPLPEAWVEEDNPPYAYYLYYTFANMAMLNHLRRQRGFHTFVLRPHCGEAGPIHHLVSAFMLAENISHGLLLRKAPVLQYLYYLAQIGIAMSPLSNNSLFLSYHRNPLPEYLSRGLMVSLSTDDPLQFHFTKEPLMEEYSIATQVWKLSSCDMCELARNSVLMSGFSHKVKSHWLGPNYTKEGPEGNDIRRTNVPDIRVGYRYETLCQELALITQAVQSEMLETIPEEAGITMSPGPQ

AMP deaminase 2 [2] = target: T1, AMP deaminase 2; assay: Inhibition of recombinant human AMPD2 using AMP as substrate preincubated for 30 mins followed by substrate addition and measured after 30 mins by spectrophotometric analysis
[3] = target: T2, AMP deaminase 2 (Homo sapiens) (UniProt Q01433); assay: Selectivity ratio of IC50 for recombinant human AMPD2 using AMP as substrate incubated for 30 mins by spectrophotometric analysis to IC50 for recombinant human AMPD2 using AMP as substrate preincubated for 30 mins followed by substrate addition and measured after 30 mins by spectrophotometric analysis
T2 sequence (whole entry): T1 sequence (Q01433 whole entry)

[4] = Metabolic stability in mouse liver microsomes assessed as compound remaining at 5 uM after 1 hr; type: ADME, Microsome; conditions: read-out: Stability
AMP deaminase 2 [5] = target: T3, AMP deaminase 2 (Mus musculus, UniProt Q9DBT5); assay: Inhibition of recombinant mouse AMPD2 using AMP as substrate preincubated for 30 mins followed by substrate addition and measured after 30 mins by spectrophotometric analysis
T3 sequence (Q9DBT5 whole entry): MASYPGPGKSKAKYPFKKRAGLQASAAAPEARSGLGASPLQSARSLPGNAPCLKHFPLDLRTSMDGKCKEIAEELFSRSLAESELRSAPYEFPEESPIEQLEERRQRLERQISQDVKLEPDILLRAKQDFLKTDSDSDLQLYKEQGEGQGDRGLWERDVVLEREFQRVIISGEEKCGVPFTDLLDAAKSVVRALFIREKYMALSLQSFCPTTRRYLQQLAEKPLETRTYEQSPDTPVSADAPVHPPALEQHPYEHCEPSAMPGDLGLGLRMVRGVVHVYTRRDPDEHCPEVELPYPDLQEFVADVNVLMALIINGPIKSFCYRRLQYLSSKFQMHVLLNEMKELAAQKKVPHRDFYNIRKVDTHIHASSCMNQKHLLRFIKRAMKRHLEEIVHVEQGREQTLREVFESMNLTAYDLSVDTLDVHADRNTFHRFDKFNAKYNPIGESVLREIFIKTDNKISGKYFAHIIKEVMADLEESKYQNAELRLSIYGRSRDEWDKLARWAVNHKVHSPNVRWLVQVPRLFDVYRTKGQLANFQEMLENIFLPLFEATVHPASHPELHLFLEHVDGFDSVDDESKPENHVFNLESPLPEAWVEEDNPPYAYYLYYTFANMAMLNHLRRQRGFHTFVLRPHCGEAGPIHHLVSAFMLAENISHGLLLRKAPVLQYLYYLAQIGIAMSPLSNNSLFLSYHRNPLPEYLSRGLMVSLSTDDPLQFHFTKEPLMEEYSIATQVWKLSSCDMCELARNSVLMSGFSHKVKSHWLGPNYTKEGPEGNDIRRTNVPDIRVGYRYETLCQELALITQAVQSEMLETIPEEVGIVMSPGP

[6] = Ex vivo inhibition of AMPD2 in C57BL/6J mouse liver at 30 mg/kg, po administered for 1 hr; type: functional
[7] = target: T4, AMP deaminase 1 (Homo sapiens) (UniProt P23109); assay: Inhibition of AMPD1 (unknown origin) at 100 uM
T4 sequence (whole entry): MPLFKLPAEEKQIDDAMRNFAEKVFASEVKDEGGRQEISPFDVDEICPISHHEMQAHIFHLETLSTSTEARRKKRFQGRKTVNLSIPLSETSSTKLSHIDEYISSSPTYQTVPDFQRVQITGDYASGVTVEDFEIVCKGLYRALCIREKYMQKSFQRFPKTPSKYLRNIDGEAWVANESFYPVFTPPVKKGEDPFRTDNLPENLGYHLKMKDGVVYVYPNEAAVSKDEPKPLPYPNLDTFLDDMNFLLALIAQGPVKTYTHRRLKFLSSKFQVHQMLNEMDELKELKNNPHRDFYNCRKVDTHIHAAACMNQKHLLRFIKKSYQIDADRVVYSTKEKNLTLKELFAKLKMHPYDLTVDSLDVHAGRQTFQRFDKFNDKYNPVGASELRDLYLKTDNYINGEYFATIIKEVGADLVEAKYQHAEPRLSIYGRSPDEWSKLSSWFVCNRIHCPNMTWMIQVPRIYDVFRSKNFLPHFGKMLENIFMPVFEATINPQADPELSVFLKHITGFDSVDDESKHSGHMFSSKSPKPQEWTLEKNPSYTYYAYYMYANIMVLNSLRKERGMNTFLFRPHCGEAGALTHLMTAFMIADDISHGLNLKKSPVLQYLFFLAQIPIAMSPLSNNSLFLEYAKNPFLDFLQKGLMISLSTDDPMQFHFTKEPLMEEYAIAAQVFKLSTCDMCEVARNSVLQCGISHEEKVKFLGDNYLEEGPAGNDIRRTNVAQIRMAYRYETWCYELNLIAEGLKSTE

IC50 (AMP deaminase 2 [1]) [nM]	IC50 (AMP deaminase 2 [2]) [nM]	Ratio IC50 [3]	remaining at 1 h, 5 µM [4] [%]	IC50 (AMP deaminase 2 [5]) [nM]	inhibition [7]	SMILES	inhibition in vivo at 30 mg/kg [6] [%]
5000	2200	2.3				Cc1cccc2c1N(Cc1ccccc1)C(C)(C)CN2C(N)=O	
1900	240	8.2				CC1(C)CN(C(N)=O)c2cc(F)ccc2N1Cc1ccccc1	
1400	170	8.2				Cc1ccc(CN2c3ccccc3N(C(N)=O)CC2(C)C)cc1	
4100	270	15				CC1(C)CN(C(N)=O)c2ccccc2N1Cc1ccc(OC(F)(F)F)cc1	
3000	270	11			inactive	CC1(C)CN(C(N)=O)c2ccccc2N1Cc1ccccc1	
2300	300	7.5				Cc1cccc(CN2c3ccccc3N(C(N)=O)CC2(C)C)c1	
1700	190	8.9				CC1(C)CN(C(N)=O)c2ccccc2N1Cc1ccc(Cl)cc1	
21000	12000	1.8				CC1(C)CN(C(N)=O)c2ccccc2N1Cc1ccccc1Cl	
57000	41000	1.4				CC(=O)N1CC(C)(C)N(Cc2ccccc2)c2ccccc21	
5100	1100	4.6				CC1(C)CN(C(N)=O)c2ccc(F)cc2N1Cc1ccccc1	

The remaining lines, values behind:

SMILES	IC50 (AMP deaminase 2 [1]) [nM]	IC50 (AMP deaminase 2 [2]) [nM]	Ratio IC50 [3]	remaining at 1 h, 5 µM [4] [%]	IC50 (AMP deaminase 2 [5]) [nM]	inhibition [7]	inhibition in vivo at 30 mg/kg [6] [%]
CCC(=O)N1CC(C)(C)N(Cc2ccccc2)c2ccccc21	> 100000						
CC1(C)CN(C(N)=O)c2cc(F)cc(F)c2N1Cc1ccccc1	4100	260	16				
CC1(C)CN(C(N)=O)c2ccc(F)c(F)c2N1Cc1ccc(COc2ccc(CO)cc2)cc1		100		46	110		83
CC1(C)CN(C(N)=O)c2ccccc2N1Cc1cccc(OC(F)(F)F)c1	1300	140	9.2				
CC(=O)Nc1ccc(OCc2ccc(CN3c4c(ccc(F)c4F)N(C(N)=O)CC3(C)C)cc2)cc1		170		34			19
CC1(C)CN(C(N)=O)c2ccc(F)c(F)c2N1Cc1ccc(COc2ccccc2)cc1		130		51			24
CC1(C)CN(C(N)=O)c2cccc(F)c2N1Cc1ccccc1	1100	30	36				
CC1(C)CN(C(N)=O)c2ccccc2N1Cc1ccc(OCc2ccccc2)cc1	3100	740	4.2				
CC1(C)CN(C(N)=O)c2ccccc2N1Cc1ccc(COc2ccccc2)cc1	2600	110	25				
CC1(C)CN(C(N)=O)c2ccccc2N1Cc1cccc(CCc2ccccc2)c1	> 3000	500					
CC1(C)CN(C(N)=O)c2ccccc2N1Cc1ccc(CCc2ccccc2)cc1	6000	410	15				
CC1(C)CN(C(N)=O)c2c(F)cccc2N1Cc1ccccc1	4000	500	8				
CC1(C)CN(C(N)=O)c2ccc(F)c(F)c2N1Cc1ccc(COc2ccc(C(N)=O)cc2)cc1		200		56			58
CC1(C)CN(C(N)=O)c2cccc(Cl)c2N1Cc1ccccc1	1700	180	9.2				
CC1(C)CN(C(N)=O)c2ccc(F)c(F)c2N1Cc1ccccc1	1800	60	33	18	40		71
CNC(=O)N1CC(C)(C)N(Cc2ccccc2)c2ccccc21	> 100000						
CC1(C)CN(S(C)(=O)=O)c2ccccc2N1Cc1ccccc1	> 100000						
